Source: a melting point compilation (Tetko et al.; mined from patent text by program, amines drawn as free bases though some values may be those of a salt)
Residues, ends and D or L forms follow the SMILES beside them. *: point of attachment. Cbz = O=C(OCc1ccccc1)*

`COc1ccc(-c2c(Cl)c(CN3C(=O)CCC3=O)nc3sc4c(c23)CCC(=O)C4(C)C)cc1` gave a melting point of 245 to 246 °C.
With `NC(=O)C(=O)CCCCl` the melting point was 87 °C.
For `COc1ccc(Cl)nc1N`, the melting point was 134 to 135 °C.
Work on `CN1CCC(O)(c2cccn2C)CC1` yielded a melting point of 123 to 124 °C.
`O=C(c1ccc(Br)s1)c1c(F)c(F)cc(F)c1F` showed a melting point of 51 to 54 °C.
`CN(C)C(=O)[C@H]1C[C@H]1C(=O)N(C)C` showed a melting point of 103 to 104 °C.
With `CCc1nn(CC#N)c(CC)c1Oc1cc(Cl)cc(Cl)c1` the melting point was 70 to 72 °C.
In the case of `Cc1nnc(Cl)c(-c2c(F)cc(F)cc2F)c1-c1ccc2ccccc2c1`, the melting point is reported as 86 to 89 °C.
`COC(=O)c1ccccc1S(=O)(=O)NC(=O)Nc1nc(OC)nc(C2CC2)n1` showed a melting point of 166 to 168 °C.
Work on `COc1ccc(CSC(C)(C)C(O)(CO)c2ccc(F)cc2F)cc1` (stereo not given) yielded a melting point of 113 °C.
Molecule `COc1ccc(CNc2c(C)c(C)c3c(c2C)C(c2ccccc2)C(C)(C)O3)cc1` (stereo not given) has a melting point of 113 to 115 °C.
In the case of `O=C1Nc2ccccc2C(c2ccccc2F)=NC1Cc1cccs1` (racemic), the melting point is reported as 189 to 191 °C.
`Cn1cc(C=CC(=O)NCCO)c([N+](=O)[O-])n1` showed a melting point of 176 to 178 °C.
`O=C1C=C(NC(=O)C(=O)c2cn(Cc3cccc(Cl)c3)c3ccccc23)CO1` gave a melting point of 268 to 270 °C.
`CSc1ccc(-c2ccc(C(=O)Nc3ccc4cc(CN5CCCC5)cnc4c3C)cc2)cc1` gave a melting point of 206 to 208 °C.
In the case of `CCn1cc(C(=O)O)c(=O)c2cc(Cl)c(N3CCOCC3)cc21`, the melting point is reported as 266 °C.
`CC(C)(C)OC(=O)Nc1ccc(Nc2nc(-c3ccc4cc(OCc5ccccc5)ccc4c3)cc3ccnn23)cc1` gave a melting point of 189 °C.
In the case of `CCCN(CCC)CCOc1ccc2[nH]c(C)c(C(=O)OCc3ccccc3)c2c1`, the melting point is reported as 123 to 125 °C.
Molecule `Fc1ccc(-c2nc(S)ncc2CCN2CCC(=Cc3ccccc3F)CC2)cc1` has a melting point of 157 to 158 °C.
For `COc1cccc2c(Nc3ccccc3C)nc(Cl)nc12`, the melting point was 218 to 220 °C.
`O=C(NC1CCc2c[nH]cc2C1)[C@@H]1CCCN1C(=O)[C@@H](CC1CCCCC1)NS(=O)(=O)Cc1ccccc1` (stereo not given in full) showed a melting point of 106 to 109 °C.
Molecule `O=CCC1Cc2ccc(Br)cc2C1=O` (racemic) has a melting point of 84 °C.
For `CC(Br)C(=O)c1ccccc1NCC(=O)O` (stereo not given), the melting point was 144 to 147 °C.
Work on `Cn1c([N+](=O)[O-])cnc1COc1ccc([N+](=O)[O-])cc1` yielded a melting point of 150 °C.
`CC1(c2cccc(S(N)(=O)=O)c2)OCCO1` gave a melting point of 155 to 157 °C.
`CNc1nnc(-c2ccc3ncn(-c4ccc(OC(F)F)cc4)c3c2)o1` showed a melting point of 195 to 196 °C.
For `O=C(O)COc1ccc(N2CC(=O)NS2(=O)=O)c(O)c1`, the melting point was 185 to 188 °C.
Molecule `CC(C)(C)c1cc(SC2CC(=O)N(c3ccccc3N3C(=O)CC(Sc4cc(C(C)(C)C)c(O)c(C(C)(C)C)c4)C3=O)C2=O)cc(C(C)(C)C)c1O` (stereo not given) has a melting point of 128 to 133 °C.
With `Cn1ncc2c1C(=O)Nc1cccnc1N2` the melting point was 304 to 305 °C.
Work on `CCCCn1nnc(NCc2ccc(-c3ccccc3-c3nnn[nH]3)cc2)c1C(=O)O` yielded a melting point of 154 to 155 °C.
Molecule `CN1CCN(c2ccc(Nc3ncc4ccc(-c5ccccc5OCC(=O)OC(C)(C)C)n4n3)cc2)CC1` has a melting point of 193 to 195 °C.
With `O=C(O)CC1c2cc([N+](=O)[O-])ccc2CCN1C(=O)OCc1ccccc1` (stereo not given) the melting point was 160 to 162 °C.
`O=c1[nH]c2cc(Cl)ccc2c(O)c1-c1cccc(Cl)c1` gave a melting point of over 300 °C.
Molecule `N#CC(C#N)=CNc1ccc(C2=NNC(=O)CC2)cc1` has a melting point of 290 to 295 °C.
Work on `Cc1ccc(N)c(C#Cc2ccccc2)n1` yielded a melting point of 154 to 155 °C.
For `COc1cccc(N2C(CO)=Cc3ccsc3S2(=O)=O)c1`, the melting point was 141 to 143 °C.
With `COC(=O)C(C#N)=C(C=CN(C)C)c1ccc(OC)cc1` the melting point was 175 to 178 °C.
`CSc1nccc(-c2ssc(=S)c2C)n1` showed a melting point of 170 to 172 °C.
`COc1ccc(Cl)c(Oc2c(NS(=O)(=O)c3ccc(C(C)C)cn3)ncnc2OCCOC(=O)Nc2ccccn2)c1` gave a melting point of 190 to 191 °C.
Work on `O=CNCc1ccc2[nH]cc(CCNC(=O)OCc3ccccc3)c2c1` yielded a melting point of 114 to 116 °C.
`CC(c1ccc(N)cc1)n1ccnc1` (stereo not given) gave a melting point of 130 °C.
In the case of `COc1ccc(C=O)cc1I`, the melting point is reported as 104 to 107 °C.
Molecule `CCCCCCCCCCCCC1=C(OC(C)=O)C(=O)c2c(C)cccc2C1=O` has a melting point of 69 to 74 °C.
Work on `CS(=O)(=O)c1ccc(-c2ccccc2-c2ccc(Cl)cc2)cc1` yielded a melting point of 180 to 181 °C.
Molecule `COc1ccc2c(c1)CCC1C2CCC2(C)C(=O)CCC12` (stereo not given) has a melting point of 128 to 131 °C.
Work on `CC1(C)N=C(Oc2ccccn2)c2cc(F)ccc2O1` yielded a melting point of 114 °C.
With `Cc1cccc(-n2nc(Sc3ccc(Cl)cc3)c(C)c(C#N)c2=O)c1` the melting point was 163 to 165 °C.
Molecule `Cc1ccc2c(NCc3ccc(NC(=O)c4ccc(F)cc4)cc3)nc(NCCc3ccccn3)nc2c1` has a melting point of 112 to 115 °C.
Molecule `COC(=O)CCCC#Cc1cc(Cl)ccc1NS(=O)(=O)c1c(C)noc1C` has a melting point of 107 to 109 °C.
For `Clc1ccc(/C=C/c2ccc(Cl)cc2)cc1`, the melting point was 176 °C.
In the case of `COC(=O)c1ccc(C(O)c2c(C)c3cc(C(F)(F)F)ccc3n2S(=O)(=O)c2cccc(C(C)(C)C)c2)cc1` (stereo not given), the melting point is reported as 65 °C.
With `COc1ccc(Cn2c(-c3ccco3)nc3c(-c4ccco4)ncnc32)cc1` the melting point was 134 to 136 °C.
`CC(C)CN(CC(C)C)S(=O)(=O)N[C@@H](Cc1ccc(Oc2nccc3cnccc23)cc1)C(=O)O` showed a melting point of 88 °C.
For `CN(C)Cc1cccc(OCCCNc2nc3ccccc3s2)c1`, the melting point was 154 to 155 °C.
`CCCN1CCN(Cc2ccc3c(c2)-c2[nH]nc(-c4ccsc4)c2C3)CC1` showed a melting point of 185 to 187 °C.
Molecule `Cn1c(-c2cccc(Cl)c2)cc(-c2cccc(Cl)c2)nc1=O` has a melting point of 178 to 181 °C.
For `CC(C)(C)c1ccc(OCC(O)CN2CCC(N3CCC4(CC3)CSC3=C(O4)c4ccccc4C(=O)C3=O)CC2)cc1` (stereo not given), the melting point was 190 to 193 °C.
For `Cc1ccnc(NC(N)=S)c1`, the melting point was 210 to 212 °C.
With `Cc1nc(O)c2[nH]nc(C(C)C)c2n1` the melting point was over 250 °C.
With `CCOC(=O)COc1ccc(C(=O)Nc2cc(OC)ccc2Sc2ccccc2-c2nnn[nH]2)cc1` the melting point was 195 to 197 °C.
For `COc1cn(-c2ccc(OC(F)(F)F)cc2F)nc(-c2ccnn2-c2ccccc2)c1=O`, the melting point was 117 to 118 °C.
In the case of `N#CC=Cc1ccc(Cl)cc1C(=O)c1ccccc1F`, the melting point is reported as 130 to 133 °C.
With `O=C(OC1CCCC1)c1ncn2c1[C@@H]1CCCN1C(=O)c1c(Cl)cccc1-2` the melting point was 210 to 212 °C.
Molecule `Cc1noc(C)c1-c1ccc(OC2SCC(O)C(O)C2O)cn1` (stereo not given) has a melting point of 138 °C.
`OCCSCc1ccc(-c2ccc(CSCCO)cc2)cc1` gave a melting point of 152 °C.
With `O=S(=O)(Cl)c1ccc(Oc2ccc(Cl)cc2)cc1` the melting point was 61 °C.
Work on `CCCCCCN(CCC12CC3CC(CC(C3)C1)C2)C(=O)NCCCc1ccncc1` yielded a melting point of 120 to 122 °C.
Work on `CC1(C)C(=O)N(c2ccc(N)c(C(F)(F)F)c2)C(=O)N1CCCCCN1C(=O)N(c2ccc(N)c(C(F)(F)F)c2)C(=O)C1(C)C` yielded a melting point of 108 to 109 °C.
`COc1cc(C(C)=O)c(F)cc1Cl` showed a melting point of 96.5 to 98.5 °C.
`CN(O)CCc1ccc2c(c1)C(=O)c1ccccc1CO2` showed a melting point of 101 to 102 °C.
With `NC(=O)c1nnn(Cc2ccc(C(=O)c3c(Cl)cccc3Cl)cc2)c1N` the melting point was 165 to 167 °C.
`Cc1noc(NC(=O)N2CCN(c3nccc(-c4cc(F)ccc4F)n3)CC2)c1C` gave a melting point of 218 to 219 °C.
Work on `COc1cc(N)c(Cl)cc1C(=O)NCC1CCN(CCCCCC(=O)c2ccc(C)c(C)c2)CC1` yielded a melting point of 115 to 117 °C.
`CC12CCC(=O)C=C1CCC1C2CCC2(C)C(C(=O)c3ccccc3)CCC12` (stereo not given) showed a melting point of 171 to 173 °C.
Work on `CCCCCCCCCCCC1OC1CO` (stereo not given) yielded a melting point of 68 to 70 °C.
Work on `COC1CCc2c(cc(-c3ccccc3)n2-c2ccc(O)cc2)C1` (stereo not given) yielded a melting point of 174 to 175 °C.
In the case of `Nc1ccc(S(=O)(=O)c2cc(-c3ccccc3Cl)nc(N3CCCC3)c2)cc1`, the melting point is reported as 188 to 190 °C.
For `CN(C(=O)C(C)(C)c1cc(C(C)(C)C)c(O)c(C(C)(C)C)c1)C1CC(C)(C)NC(C)(C)C1`, the melting point was 168 to 173 °C.
For `NCC(O)c1cc(Cl)cc(Cl)c1` (stereo not given), the melting point was 66 °C.
Molecule `CSc1ccc2c(c1)CC(C)(C)C(=O)N2` has a melting point of 154 °C.
For `COC(=O)C(=O)Oc1c(F)c(F)c(F)c(F)c1F`, the melting point was 34 to 35 °C.
For `CCCn1c(=O)c2c(ncn2CCCCC(C)=O)n(C)c1=O`, the melting point was 76 to 78 °C.
With `OC1CCc2cnc3c(c21)CCO3` (stereo not given) the melting point was 130 to 131 °C.
Work on `CC1(C2CCC3C4CCC5CC=CCC5(C)C4C(O)CC32C)OCCO1` (stereo not given) yielded a melting point of 141 to 145 °C.
`CNC(=O)N(O)C(C)C#Cc1ccc(C(C)C)cc1` (stereo not given) showed a melting point of 146 to 147 °C.
With `CN(C)NC(=O)c1c([Si](C)(C)C)ccc(Cl)c1Cl` the melting point was 144 to 145 °C.
For `CN1C(=O)C(c2cccc(-c3cccnc3F)c2)(c2cc(C=O)n(CCF)c2)N=C1N` (stereo not given), the melting point was 218 to 221 °C.
In the case of `COc1cc2ccccc2cc1NC(=O)Nc1cccc2ccccc12`, the melting point is reported as 155 to 156 °C.
`COc1ccc(C=C(NC(=O)c2ccccc2)C(=O)O)cc1OC` gave a melting point of 196 to 198 °C.
`CCCCCCCN(CCN1CCN(CCSc2nc3ccccc3o2)CC1)C(=O)Nc1c(C(C)C)cccc1C(C)C` gave a melting point of 110 to 111 °C.
For `O=C(O)c1cccc(NC(=O)N2CCc3cc(S(=O)(=O)N4CCN(c5cccc(Cl)c5)CC4)ccc32)c1`, the melting point was 250 °C.
`Cc1ccccc1C(=O)Nc1ccc(C(=O)N2CCCC(CO)c3ccccc32)cc1` (stereo not given) showed a melting point of 202 to 206 °C.
`COc1ccc(Cn2nc(-n3cnn(Cc4ccc(F)cc4)c3=O)cc2C(=O)NCc2ccc(F)c(F)c2)cc1` gave a melting point of 156 to 158 °C.
Work on `O=c1oc(-c2ccc(C(F)(F)F)cc2)nc2cc(F)ccc12` yielded a melting point of 137 to 139 °C.
`COC(=O)c1cc(S(C)(=O)=O)ccc1OCc1ccccn1` showed a melting point of 189 to 192 °C.
For `COC(=O)c1cncn1C1c2ccccc2C(=O)C1(C)C` (stereo not given), the melting point was 104 to 108 °C.
Work on `CNC(=O)Oc1ccc2c(c1)c1c(n2C)CC(CO)C1` (stereo not given) yielded a melting point of 137 to 138 °C.
`CN(O)C(=O)c1ccc(CCCCc2ccccc2)cc1` gave a melting point of 62 to 63.5 °C.
`CC(=O)COC1CC2C3CCC4=CC(=O)C=CC4(C)C3(F)C(O)CC2(C)C1(O)C(=O)CCl` (stereo not given) showed a melting point of 226 to 227 °C.
`COC(=O)C(CC(C)C)NC(=O)C(Cc1ccccc1)NC(=O)OCc1ccccc1` (stereo not drawn) (Cbz-Phe-Leu-OMe; configuration not given here) gave a melting point of 125 to 126 °C.
